Source: patent publication US20110319379A1, “Substituted Indazole Amides And Their Use As Glucokinase Activators” (priority 2009, published 2011)

What follows are compounds tested against T1, recombinant human glucokinase (beta cell isoform) (Homo sapiens, UniProt P35557) (assay: Assay 1: Evaluating Activator Potency and Maximum Activation at 5 mM Glucose). Conditions: not given.
T1 construct: Full-length glucokinase (beta cell isoform) was His-tagged at the N-terminus; His tag (N); made in house; host or cells: E. coli BL21(DE3), vector pBCGK
T1 sequence (P35557 1-465): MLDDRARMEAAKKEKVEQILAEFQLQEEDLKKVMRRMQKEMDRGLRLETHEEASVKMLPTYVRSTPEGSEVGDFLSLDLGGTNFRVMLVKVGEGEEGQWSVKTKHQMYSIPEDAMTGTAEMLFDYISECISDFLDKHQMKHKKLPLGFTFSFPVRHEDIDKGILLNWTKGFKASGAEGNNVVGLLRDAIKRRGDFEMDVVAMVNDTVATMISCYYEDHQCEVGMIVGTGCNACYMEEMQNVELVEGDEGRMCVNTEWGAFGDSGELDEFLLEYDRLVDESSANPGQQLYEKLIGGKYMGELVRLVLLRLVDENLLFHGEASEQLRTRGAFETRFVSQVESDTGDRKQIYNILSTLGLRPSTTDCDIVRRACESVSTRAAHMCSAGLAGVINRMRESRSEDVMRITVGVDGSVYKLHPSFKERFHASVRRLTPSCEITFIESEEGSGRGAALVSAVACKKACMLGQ
Format: biochemical
Method: Representative compounds of this invention were evaluated in biochemical assays (Assay 1 or Assay 2) to characterize their glucokinase activation properties.
The recombinant human glucokinase protein utilized in both assays was prepared and purified as described below.
BL21(DE3) cells (Invitrogen Corporation, Carlsbad, Calif.) containing pBCGK (C or N H is) vector were grown at 37° C. (in 2XYT) until the OD600 was between 0.6-1.0. Expression was induced by addition of isopropylthiogalactoside to a final concentration of 0.1-0.2 mM to the cells which were then incubated overnight at 23° C. The next day, cells were harvested via centrifugation at 5000 rpm for 15 minutes at 4° C. The cell pellet was stored at −80° C. for future purification.
Beta Cell Glucokinase His-Taq Purification Conditions: A Ni-NTA (Quigan, Germantown, Md.) column (15-50 mL) was used for separation. Two buffers were prepared, 1) a lysis/nickel equilibration and wash buffer and 2) a nickel elution buffer. The lysis/equilibration/wash buffer was prepared as such: 25 mM HEPES buffer at pH 7.5, 250 mM NaCl, 20 mM imidazole, and 14 mM β-mercaptoethanol as final concentrations. The elution buffer was prepared as such: 25 mM HEPES at pH 7.5, 250 mM NaCl, 400 mM imidazole, and 14 mM β-mercaptoethanol as final concentrations. The buffers were each filtered with a 0.22 μm filter prior to use. The cell pellet (1 L culture) was resuspended in 300 mL of the lysis/equilibration buffer. The cells were then lysed (3 times) with a Microfluidics Model 110Y microfluidizer (Microfluidics Corporation, Newton, Mass.). The slurry was centrifuged with a Beckman Coulter Model LE-80K ultracentrifuge (Beckman Coulter, Fullerton, Calif.) at 40,000 rpm for 45 minutes at 4° C. The supernatant was transferred to a chilled flask. A volume of 20 μl was saved for gel analysis. A Pharmacia AKTA (GMI, Inc., Ramsey, Minn.) purification system was used for separation. The prime lines were purged with lysis/equilibration buffer. The Ni-NTA column was equilibrated with 200 mL of the lysis/equilibration buffer at a flow rate of 5 mL/minute. The supernantant was loaded over the column at 4 mL/minute and the flow-through was collected in a flask. The unbound proteins were washed with lysis/equilibration buffer at a flow rate of 5 mL/minute until the ultraviolet reaches baseline. The protein was then eluted from the column with the imidazole elution buffer via imidazole gradient 20 mM to 400 mM over 320 mL. The column was then stripped of any additional protein with 80 mL of the elution buffer. The elution fractions were each 8 mL, for a total yield of 50 samples. Fractions were analyzed by sodium dodecyl sulfate polyacrylamide (SDS-PAGE) and the fractions containing protein of interest were pooled and concentrated to 10 mL using ultrafiltration cell with a 10,000 molecular weight cut-off (MWCO) Millipore membrane (Sigma-Aldrich, St. Louis, Mo.) under nitrogen gas (60 psi). Protein was further purified by size exclusion chromatography (SEC) using a […] (320 mL) (Amersham Pharmacia, Uppsala, Sweden). SEC was equilibrated with 450 mL sizing buffer containing 25 mM HEPES pH 7.0, 50 mM NaCl, and 5 mM dithiothreitol. Concentrated protein was then loaded over SEC and elution with 400 mL sizing buffer was performed overnight at 0.5 mL/minute. The elution fractions were 5 mL each. The fractions were analyzed by SDS-PAGE and protein containing fractions were pooled. Concentration was measured using Bradford Assay/BSA Standard. Purified protein was stored in small aliquots at −80° C.
Assay 1: Evaluating Activator Potency and Maximum Activation at 5 mM Glucose
Full-length glucokinase (beta cell isoform) was His-tagged at the N-terminus and purified by a Ni column followed by size exclusion chromatography as described above. Glucose was obtained from Calbiochem (San Diego, Calif.) and other reagents were purchased from Sigma-Aldrich (St. Louis, Mo.).

| EC50 | SMILES |
| --- | --- |
| 1630 nM | Cc1cnc(NC(=O)c2cc(Oc3cnc(C(=O)N(C)C)c(F)c3)c3cn(C)nc3c2)cn1 [Example 1AC, 4-{[6-(dimethylcarbamoyl)-5-fluoropyridin-3-yl]oxy}-2-methyl-N-(5-methylpyrazin-2-yl)-2H-indazole-6-carboxamide] |

Same assay, conditions: Assay 1; 5 mM glucose; NADH depletion at 340 nm, PK/LDH coupled; read-out: Glucokinase EC50

| EC50 | SMILES |
| --- | --- |
| 1080 nM | Cc1ccc(NC(=O)c2cc(Oc3cnc(C(=O)N(C)C)nc3)c3cn(C)nc3c2)nc1 [Example 1Z, 4-{[2-(dimethylcarbamoyl)pyrimidin-5-yl]oxy}-2-methyl-N-(5-methylpyridin-2-yl)-2H-indazole-6-carboxamide] |
| 1340 nM | CCS(=O)(=O)c1ccc(Oc2cc(C(=O)Nc3ccccn3)cc3nn(C)cc23)cc1 [Example 1S, 4-[4-(ethylsulfonyl)phenoxy]-2-methyl-N-pyridin-2-yl-2H-indazole-6-carboxamide] |
| 7810 nM | Cc1cnc(NC(=O)c2cc(Oc3ccc(S(C)(=O)=O)cc3)c3cn(C)nc3c2)cn1 [Example 1L, 2-methyl-N-(5-methylpyrazin-2-yl)-4-[4-(methylsulfonyl)phenoxy]-2H-indazole-6-carboxamide] |
| 463 nM | CCn1cc2c(Oc3ccc(S(=O)(=O)CC)cc3)cc(C(=O)Nc3ccc(C)cn3)cc2n1 [Example 1AD, 2-ethyl-4-[4-(ethylsulfonyl)phenoxy]-N-(5-methylpyridin-2-yl)-2H-indazole-6-carboxamide] |
| 4310 nM | CN(C)C(=O)c1cnc(Oc2cc(C(=O)Nc3cnccn3)cc3nn(C)cc23)cn1 [Example 1E, 4-{[5-(dimethylcarbamoyl)pyrazin-2-yl]oxy}-2-methyl-N-pyrazin-2-yl-2H-indazole-6-carboxamide] |
| 1950 nM | CCS(=O)(=O)c1ccc(Oc2cc(C(=O)Nc3cnc(C)cn3)cc3nn(C)cc23)cc1 [Example 1T, 4-[4-(ethylsulfonyl)phenoxy]-2-methyl-N-(5-methylpyrazin-2-yl)-2H-indazole-6-carboxamide] |
| 1500 nM | Cn1cc2c(Oc3ccc(S(=O)(=O)C4CC4)cc3)cc(C(=O)Nc3ccccn3)cc2n1 [Example 1V, 4-[4-(cyclopropylsulfonyl)phenoxy]-2-methyl-N-pyridin-2-yl-2H-indazole-6-carboxamide] |
| 293 nM | Cc1ccc(NC(=O)c2cc(Oc3cnc(C(=O)N4CCCC4)cn3)c3cn(C)nc3c2)nc1 [Example 1A, 2-methyl-N-(5-methylpyridin-2-yl)-4-(5-(pyrrolidine-1-carbonyl)pyrazin-2-yloxy)-2H-indazole-6-carboxamide] |
| 2660 nM | Cc1ccc(NC(=O)c2cc(Oc3ccc(S(C)(=O)=O)cc3)c3cn(C)nc3c2)nc1 [Example 1M, 2-methyl-N-(5-methylpyridin-2-yl)-4-[4-(methylsulfonyl)phenoxy]-2H-indazole-6-carboxamide] |
| 2490 nM | Cc1cnc(NC(=O)c2cc(Oc3cnc(C(=O)N(C)C)cn3)c3cn(C)nc3c2)cn1 [Example 1F, 4-{[5-(dimethylcarbamoyl)pyrazin-2-yl]oxy}-2-methyl-N-(5-methylpyrazin-2-yl)-2H-indazole-6-carboxamide] |
| 960 nM | Cn1cc2c(Oc3cnc(C(=O)N4CCCC4)cn3)cc(C(=O)Nc3cnccn3)cc2n1 [Example 1B, 2-methyl-N-pyrazin-2-yl-4-{[5-(pyrrolidin-1-ylcarbonyl)pyrazin-2-yl]oxy}-2H-indazole-6-carboxamide] |
| 1040 nM | CN(C)C(=O)c1ncc(Oc2cc(C(=O)Nc3ccc(C(F)(F)F)cn3)cc3nn(C)cc23)cn1 [Example 1AB, 4-(2-(dimethylcarbamoyl)pyrimidin-5-yloxy)-2-methyl-N-(5-(trifluoromethyl)-pyridin-2-yl)-2H-indazole-6-carboxamide] |
| 1480 nM | CCn1cc2c(Oc3ccc(S(=O)(=O)C4CC4)cc3)cc(C(=O)Nc3cnc(C)cn3)cc2n1 [Example 1W, 4-[4-(cyclopropylsulfonyl)phenoxy]-2-ethyl-N-(5-methylpyrazin-2-yl)-2H-indazole-6-carboxamide] |
| 1550 nM | Cc1ccc(NC(=O)c2cc(Oc3cnc(C(=O)N(C)C)cn3)c3cn(C)nc3c2)nc1 [Example 1G, 4-{[5-(dimethylcarbamoyl)pyrazin-2-yl]oxy}-2-methyl-N-(5-methylpyridin-2-yl)-2H-indazole-6-carboxamide] |
| 2770 nM | COc1cnc(NC(=O)c2cc(Oc3cnc(C(=O)N(C)C)cn3)c3cn(C)nc3c2)cn1 [Example 1H, 4-{[5-(dimethylcarbamoyl)pyrazin-2-yl]oxy}-N-(5-methoxypyrazin-2-yl)-2-methyl-2H-indazole-6-carboxamide] |
| 2730 nM | CCn1cc2c(Oc3cnc(C(=O)N(C)C)cn3)cc(C(=O)Nc3cnc(C)cn3)cc2n1 [Example 1P, 4-{[5-(dimethylcarbamoyl)pyrazin-2-yl]oxy}-2-ethyl-N-(5-methylpyrazin-2-yl)-2H-indazole-6-carboxamide] |
| 1490 nM | Cc1ccc(NC(=O)c2cc(Oc3ccc(C(=O)N4CCCC4)c(F)c3)c3cn(C)nc3c2)nc1 [Example 1C, 4-[3-fluoro-4-(pyrrolidin-1-ylcarbonyl)-phenoxy]-2-methyl-N-(5-methylpyridin-2-yl)-2H-indazole-6-carboxamide] |
| 863 nM | CCn1cc2c(Oc3ccc(S(=O)(=O)C4CC4)cc3)cc(C(=O)Nc3ccccn3)cc2n1 [Example 1X, 4-[4-(cyclopropylsulfonyl)phenoxy]-2-ethyl-N-pyridin-2-yl-2H-indazole-6-carboxamide] |
| 1890 nM | Cc1cnc(NC(=O)c2cc(Oc3ccc(S(=O)(=O)C4CC4)cc3)c3cn(C)nc3c2)cn1 [Example 1U, 4-[4-(cyclopropylsulfonyl)phenoxy]-2-methyl-N-(5-methylpyrazin-2-yl)-2H-indazole-6-carboxamide] |
| 735 nM | Cn1cc2c(Oc3ccc(C(=O)N4CCCC4)c(F)c3)cc(C(=O)Nc3cnccn3)cc2n1 [Example 1D, 4-[3-fluoro-4-(pyrrolidin-1-ylcarbonyl)-phenoxy]-2-methyl-N-pyrazin-2-yl-2H-indazole-6-carboxamide] |
| 776 nM | CCn1cc2c(Oc3cnc(C(=O)N(C)C)cn3)cc(C(=O)Nc3ccc(C)cn3)cc2n1 [Example 1O, 4-{[5-(dimethylcarbamoyl)pyrazin-2-yl]oxy}-2-ethyl-N-(5-methylpyridin-2-yl)-2H-indazole-6-carboxamide] |
| 569 nM | CCn1cc2c(Oc3cnc(C(=O)N(C)C)c(F)c3)cc(C(=O)Nc3cnc(C)cn3)cc2n1 [Example 1AE, 4-(6-(dimethylcarbamoyl)-5-fluoropyridin-3-yloxy)-2-ethyl-N-(5-methylpyrazin-2-yl)-2H-indazole-6-carboxamide] |

Same assay, conditions: Assay 1; 5 mM glucose; read-out: Glucokinase EC50

| EC50 | SMILES |
| --- | --- |
| 3340 nM | Cc1cnc(NC(=O)c2cc(Oc3cnc(C(=O)N(C)C)nc3)c3cn(C)nc3c2)cn1 [Example 1Y, 4-{[2-(dimethylcarbamoyl)pyrimidin-5-yl]oxy}-2-methyl-N-(5-methylpyrazin-2-yl)-2H-indazole-6-carboxamide] |
